Each structure is given as a SMILES string.

The term inhibition denotes the relative decrease from the control value, in per cent.

Data set [1] addresses Serine/threonine-protein kinase PAK 3 (Homo sapiens) (UniProt O75914). The experiment in a line: PAK3 (h) Millipore kinase activity assay. Particulars: Compound concentration 1.0 uM; call rule not given here.
Data set [2] addresses Cyclin-dependent kinase 5/CDK5 activator 1 (Homo sapiens) (UniProt Q00535+Q15078). Kind of data set: CDK5/p35 (h) Millipore kinase activity assay. In kind it is protein-complex assay. The following applies: Compound concentration 1.0 uM.
For data set [3], the target named is Ribosomal protein S6 kinase alpha-1 (Homo sapiens) (UniProt Q15418). Kind of data set: Rsk1 (h) Millipore kinase activity assay. Particulars: Compound concentration 1.0 uM.
Ribosomal protein S6 kinase alpha-1 (Homo sapiens), sequence (Q15418 whole entry): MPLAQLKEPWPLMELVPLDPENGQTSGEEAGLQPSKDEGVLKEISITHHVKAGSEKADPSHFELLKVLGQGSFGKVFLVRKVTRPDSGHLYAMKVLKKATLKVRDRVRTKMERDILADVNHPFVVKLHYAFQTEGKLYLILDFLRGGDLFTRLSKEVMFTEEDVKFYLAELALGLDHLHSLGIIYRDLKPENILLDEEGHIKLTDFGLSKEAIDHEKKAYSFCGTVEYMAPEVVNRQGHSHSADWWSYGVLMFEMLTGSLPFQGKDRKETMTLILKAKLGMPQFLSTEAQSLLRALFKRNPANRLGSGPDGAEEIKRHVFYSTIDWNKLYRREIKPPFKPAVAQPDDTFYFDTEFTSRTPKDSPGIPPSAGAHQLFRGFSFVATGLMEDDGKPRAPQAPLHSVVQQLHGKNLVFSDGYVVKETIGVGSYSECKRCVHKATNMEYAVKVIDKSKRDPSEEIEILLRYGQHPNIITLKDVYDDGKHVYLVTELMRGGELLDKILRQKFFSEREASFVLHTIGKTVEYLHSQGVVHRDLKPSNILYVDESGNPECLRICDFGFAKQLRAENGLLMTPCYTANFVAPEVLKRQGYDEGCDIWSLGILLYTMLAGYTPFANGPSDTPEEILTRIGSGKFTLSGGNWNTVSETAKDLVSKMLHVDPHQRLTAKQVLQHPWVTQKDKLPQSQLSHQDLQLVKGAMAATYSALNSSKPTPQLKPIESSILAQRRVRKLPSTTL
For data set [4], the target named is Calcium/calmodulin-dependent protein kinase type IV (Homo sapiens) (UniProt Q16566). The experiment in a line: CaMKIV (h) Millipore kinase activity assay. The following applies: Compound concentration 1.0 uM.
The target of data set [5] is Insulin receptor-related protein (Homo sapiens) (UniProt P14616). The experiment in a line: IRR (h) Millipore kinase activity assay. Particulars: Compound concentration 1.0 uM.
Another data set concerns the target hERG (KCNH2) (Homo sapiens, UniProt Q12809). The experiment in a line: Inhibition of Potassium Channel hERG at 10 µM in the Eurofins-Panlabs radioligand binding assay (Eurofins_assay_265900). Also on record: ligand concentration 1.5 nM, non-specific ligand with concentration Astemizole, incubation time 60 min, incubation temperature 25 °C. The following applies: HEK-293 cells expressing human recombinant hERG, probe [3H] Astemizole, compound concentration 10 uM. For orientation: The hERG channel carries a current that helps repolarise heart muscle cells.

For data set [6], the target named is Serine/threonine-protein kinase BRSK2 (Homo sapiens) (UniProt Q8IWQ3). Kind of data set: BrSK2 (h) Millipore kinase activity assay. The following applies: Compound concentration 1.0 uM.
Serine/threonine-protein kinase BRSK2 (Homo sapiens), sequence (Q8IWQ3 whole entry): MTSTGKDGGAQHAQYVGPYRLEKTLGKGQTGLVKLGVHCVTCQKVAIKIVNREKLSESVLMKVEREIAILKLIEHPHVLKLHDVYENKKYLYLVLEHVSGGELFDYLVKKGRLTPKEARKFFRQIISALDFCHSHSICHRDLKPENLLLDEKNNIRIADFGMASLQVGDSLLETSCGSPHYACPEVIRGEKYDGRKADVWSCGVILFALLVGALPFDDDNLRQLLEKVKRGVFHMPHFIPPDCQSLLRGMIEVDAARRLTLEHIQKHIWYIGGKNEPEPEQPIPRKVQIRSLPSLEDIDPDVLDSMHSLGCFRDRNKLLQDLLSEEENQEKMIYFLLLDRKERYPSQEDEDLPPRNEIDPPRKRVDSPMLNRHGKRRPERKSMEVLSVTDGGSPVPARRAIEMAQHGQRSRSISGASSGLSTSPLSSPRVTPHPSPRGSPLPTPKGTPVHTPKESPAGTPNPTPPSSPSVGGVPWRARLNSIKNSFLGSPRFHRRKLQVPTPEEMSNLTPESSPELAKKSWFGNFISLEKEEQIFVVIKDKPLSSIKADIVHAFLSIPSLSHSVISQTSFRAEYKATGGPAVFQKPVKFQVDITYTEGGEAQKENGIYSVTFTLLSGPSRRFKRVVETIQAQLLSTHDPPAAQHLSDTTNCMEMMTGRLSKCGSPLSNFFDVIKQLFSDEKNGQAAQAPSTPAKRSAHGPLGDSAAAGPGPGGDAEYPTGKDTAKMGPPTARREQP
Data set [7] addresses 5-hydroxytryptamine receptor 2B (Homo sapiens) (UniProt P41595). Particulars: Compound concentration 10.0 uM.
In data set [8] the target is Melatonin receptor type 1A (Homo sapiens) (UniProt P48039). Kind of data set: Inhibition of Melatonin MT1 at 10 µM in the Eurofins-Panlabs radioligand binding assay (Eurofins_assay_251600). On the set-up: ligand concentration 0.05 nM. The following applies: Compound concentration 10.0 uM.
Data set [9] has as its target Mitogen-activated protein kinase 14 (Homo sapiens) (UniProt Q16539). The experiment in a line: SAPK2a (h) Millipore kinase activity assay. Particulars: Compound concentration 1.0 uM.
For data set [10], the target named is Tyrosine-protein kinase ABL1 (Homo sapiens) (UniProt P00519). Kind of data set: Abl (h) Millipore kinase activity assay. The following applies: Compound concentration 1.0 uM.
Data set [11] addresses Mitogen-activated protein kinase kinase kinase kinase 2 (Homo sapiens) (UniProt Q12851). Kind of data set: GCK (h) Millipore kinase activity assay. Particulars: Compound concentration 1.0 uM.
For data set [12], the target named is Mitogen-activated protein kinase kinase kinase 9 (Homo sapiens) (UniProt P80192). Kind of data set: MLK1 (h) Millipore kinase activity assay. Particulars: Compound concentration 1.0 uM.
For data set [13], the target named is Proto-oncogene tyrosine-protein kinase ROS (Homo sapiens) (UniProt P08922). Kind of data set: Ros (h) Millipore kinase activity assay. The following applies: Compound concentration 1.0 uM.
The target of data set [14] is Serine/threonine-protein kinase MAK (Homo sapiens) (UniProt P20794). Particulars: Compound concentration 1000.0 nM.
For data set [15], the target named is Mitogen-activated protein kinase 3 (Homo sapiens) (UniProt P27361). Particulars: Compound concentration 1000.0 nM.
The target of data set [16] is Phosphatidylinositol 4,5-bisphosphate 3-kinase catalytic subunit delta isoform (Homo sapiens) (UniProt O00329). The following applies: Compound concentration 1000.0 nM.
Phosphatidylinositol 4,5-bisphosphate 3-kinase catalytic subunit delta isoform (Homo sapiens), sequence (O00329 whole entry, canonical isoform): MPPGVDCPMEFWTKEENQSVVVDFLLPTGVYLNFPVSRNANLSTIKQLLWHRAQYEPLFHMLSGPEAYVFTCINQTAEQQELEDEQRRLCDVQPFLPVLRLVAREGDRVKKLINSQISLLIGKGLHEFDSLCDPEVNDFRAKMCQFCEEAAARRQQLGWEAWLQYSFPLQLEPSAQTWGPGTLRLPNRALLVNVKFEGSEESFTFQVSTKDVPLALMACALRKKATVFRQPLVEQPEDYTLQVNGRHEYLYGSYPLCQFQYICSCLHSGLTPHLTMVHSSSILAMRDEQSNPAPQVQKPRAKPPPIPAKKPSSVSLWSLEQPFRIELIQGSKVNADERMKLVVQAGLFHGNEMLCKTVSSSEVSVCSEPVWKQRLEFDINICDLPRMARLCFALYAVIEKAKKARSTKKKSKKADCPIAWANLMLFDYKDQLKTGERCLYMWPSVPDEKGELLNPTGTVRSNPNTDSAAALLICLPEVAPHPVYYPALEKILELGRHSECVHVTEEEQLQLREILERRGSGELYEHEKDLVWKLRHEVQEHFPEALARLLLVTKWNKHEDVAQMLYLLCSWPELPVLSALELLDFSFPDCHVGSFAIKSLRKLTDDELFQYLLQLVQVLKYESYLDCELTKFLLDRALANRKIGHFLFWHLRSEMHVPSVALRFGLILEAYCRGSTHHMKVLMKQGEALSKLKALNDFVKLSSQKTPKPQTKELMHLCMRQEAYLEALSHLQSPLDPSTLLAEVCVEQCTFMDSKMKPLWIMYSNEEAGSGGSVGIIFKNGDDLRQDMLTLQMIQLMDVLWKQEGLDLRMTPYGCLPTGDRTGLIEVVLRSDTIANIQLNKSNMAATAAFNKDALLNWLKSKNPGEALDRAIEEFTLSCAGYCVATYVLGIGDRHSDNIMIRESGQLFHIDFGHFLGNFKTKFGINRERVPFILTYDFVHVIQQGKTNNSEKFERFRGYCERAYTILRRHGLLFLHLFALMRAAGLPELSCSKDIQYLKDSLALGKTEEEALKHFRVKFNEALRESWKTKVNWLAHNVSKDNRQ
Data set [17] addresses Activin receptor type-2B (Homo sapiens) (UniProt Q13705). The following applies: Compound concentration 1000.0 nM.
Data set [18] has as its system Serine/threonine-protein kinase B-raf (Homo sapiens), P15056 [V600E]. Particulars: Compound concentration 1000.0 nM.
The subject of data set [19] is Mast/stem cell growth factor receptor Kit (Homo sapiens), P10721 [V559D]. Particulars: Compound concentration 1000.0 nM.
Data set [20] concerns Tyrosine-protein kinase ABL1 (Homo sapiens), P00519 [F317I]. The following applies: Compound concentration 1000.0 nM.
For data set [21], the target named is Casein kinase I isoform gamma-3 (Homo sapiens) (UniProt Q9Y6M4). Particulars: Compound concentration 1000.0 nM.
The target in data set [22] is Serine/threonine-protein kinase tousled-like 2 (Homo sapiens) (UniProt Q86UE8). Particulars: Compound concentration 1000.0 nM.
For data set [23], the target named is Phosphatidylinositol 4-phosphate 5-kinase type-1 alpha (Homo sapiens) (UniProt Q99755). The following applies: Compound concentration 1000.0 nM.
For data set [24], the target named is Myosin light chain kinase (Homo sapiens) (UniProt Q32MK0). The following applies: Compound concentration 1000.0 nM.
Data set [25] addresses Phosphatidylinositol 5-phosphate 4-kinase type-2 gamma (Homo sapiens) (UniProt Q8TBX8). The following applies: Compound concentration 1000.0 nM.
Data set [26] has as its target TRAF2 and NCK-interacting protein kinase (Homo sapiens) (UniProt Q9UKE5). The following applies: Compound concentration 1000.0 nM.
Data set [27] addresses MAP/microtubule affinity-regulating kinase 3 (Homo sapiens) (UniProt P27448). The following applies: Compound concentration 1000.0 nM.
Data set [28] concerns the target Serine/threonine-protein kinase BRSK2 (Homo sapiens) (UniProt Q8IWQ3). Particulars: Compound concentration 1000.0 nM.
In data set [29] the target is Serine/threonine-protein kinase 16 (Homo sapiens) (UniProt O75716). Particulars: Compound concentration 1000.0 nM.
Data set [30] concerns the target Mitogen-activated protein kinase 7 (Homo sapiens) (UniProt Q13164). The following applies: Compound concentration 1000.0 nM.
For data set [31], the target named is Insulin receptor (Homo sapiens) (UniProt P06213). Particulars: Compound concentration 1000.0 nM.
In data set [32] the target is Angiopoietin-1 receptor (Homo sapiens) (UniProt Q02763). Particulars: Compound concentration 1000.0 nM.
Data set [33] deals with Calcium/calmodulin-dependent protein kinase type 1G (Homo sapiens) (UniProt Q96NX5). Particulars: Compound concentration 1000.0 nM.
Data set [34] addresses Fibroblast growth factor receptor 3 (Homo sapiens) (UniProt P22607). Particulars: Compound concentration 1000.0 nM.
In data set [35] the target is Serine/threonine-protein kinase MARK1 (Homo sapiens) (UniProt Q9P0L2). The following applies: Compound concentration 1000.0 nM.
In data set [36] the target is Serine/threonine-protein kinase PAK 1 (Homo sapiens) (UniProt Q13153). The following applies: Compound concentration 1000.0 nM.
Data set [37] deals with Calcium/calmodulin-dependent protein kinase type 1B (Homo sapiens) (UniProt Q6P2M8). The following applies: Compound concentration 1000.0 nM.
Data set [38] addresses Tyrosine-protein kinase Fgr (Homo sapiens) (UniProt P09769). Particulars: Compound concentration 1000.0 nM.
In data set [39] the test system is Tyrosine-protein kinase ABL1 (Homo sapiens), P00519 [E255K]. Particulars: Compound concentration 1000.0 nM.
The target of data set [40] is Macrophage colony-stimulating factor 1 receptor (Homo sapiens) (UniProt P07333). Particulars: Compound concentration 1000.0 nM.
Data set [41] concerns the target Tyrosine-protein kinase receptor TYRO3 (Homo sapiens) (UniProt Q06418). Particulars: Compound concentration 1000.0 nM.
The subject of data set [42] is Epidermal growth factor receptor (Homo sapiens), P00533 [T790M]. The following applies: Compound concentration 1000.0 nM.
In data set [43] the target is Interleukin-1 receptor-associated kinase 4 (Homo sapiens) (UniProt Q9NWZ3). Particulars: Compound concentration 1000.0 nM.

5-hydroxytryptamine receptor 2B (Homo sapiens), sequence (P41595 whole entry): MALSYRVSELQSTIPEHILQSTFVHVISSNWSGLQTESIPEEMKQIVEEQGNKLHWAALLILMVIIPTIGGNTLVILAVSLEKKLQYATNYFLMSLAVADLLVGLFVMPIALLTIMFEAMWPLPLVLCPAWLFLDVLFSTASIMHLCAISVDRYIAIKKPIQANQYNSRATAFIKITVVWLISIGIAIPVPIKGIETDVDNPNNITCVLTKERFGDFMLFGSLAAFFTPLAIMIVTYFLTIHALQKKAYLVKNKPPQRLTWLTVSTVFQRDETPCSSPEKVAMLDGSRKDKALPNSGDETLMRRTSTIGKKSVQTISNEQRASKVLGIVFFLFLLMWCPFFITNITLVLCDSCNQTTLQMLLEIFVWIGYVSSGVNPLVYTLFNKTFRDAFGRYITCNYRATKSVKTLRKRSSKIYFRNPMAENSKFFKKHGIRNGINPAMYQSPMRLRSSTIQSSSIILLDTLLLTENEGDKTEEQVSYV
Phosphatidylinositol 5-phosphate 4-kinase type-2 gamma (Homo sapiens), sequence (Q8TBX8 whole entry): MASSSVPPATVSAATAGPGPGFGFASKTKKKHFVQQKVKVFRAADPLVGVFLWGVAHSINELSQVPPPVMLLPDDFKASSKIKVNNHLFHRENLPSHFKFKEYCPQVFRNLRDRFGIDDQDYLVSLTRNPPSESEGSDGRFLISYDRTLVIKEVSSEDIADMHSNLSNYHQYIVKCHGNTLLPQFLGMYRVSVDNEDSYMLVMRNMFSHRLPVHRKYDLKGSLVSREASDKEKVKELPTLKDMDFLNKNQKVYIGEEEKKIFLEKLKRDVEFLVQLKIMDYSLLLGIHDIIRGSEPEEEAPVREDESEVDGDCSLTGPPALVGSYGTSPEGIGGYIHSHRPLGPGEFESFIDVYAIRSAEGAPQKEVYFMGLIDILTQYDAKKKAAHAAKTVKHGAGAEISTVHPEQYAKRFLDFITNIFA
hERG (KCNH2), sequence (Q12809 whole entry): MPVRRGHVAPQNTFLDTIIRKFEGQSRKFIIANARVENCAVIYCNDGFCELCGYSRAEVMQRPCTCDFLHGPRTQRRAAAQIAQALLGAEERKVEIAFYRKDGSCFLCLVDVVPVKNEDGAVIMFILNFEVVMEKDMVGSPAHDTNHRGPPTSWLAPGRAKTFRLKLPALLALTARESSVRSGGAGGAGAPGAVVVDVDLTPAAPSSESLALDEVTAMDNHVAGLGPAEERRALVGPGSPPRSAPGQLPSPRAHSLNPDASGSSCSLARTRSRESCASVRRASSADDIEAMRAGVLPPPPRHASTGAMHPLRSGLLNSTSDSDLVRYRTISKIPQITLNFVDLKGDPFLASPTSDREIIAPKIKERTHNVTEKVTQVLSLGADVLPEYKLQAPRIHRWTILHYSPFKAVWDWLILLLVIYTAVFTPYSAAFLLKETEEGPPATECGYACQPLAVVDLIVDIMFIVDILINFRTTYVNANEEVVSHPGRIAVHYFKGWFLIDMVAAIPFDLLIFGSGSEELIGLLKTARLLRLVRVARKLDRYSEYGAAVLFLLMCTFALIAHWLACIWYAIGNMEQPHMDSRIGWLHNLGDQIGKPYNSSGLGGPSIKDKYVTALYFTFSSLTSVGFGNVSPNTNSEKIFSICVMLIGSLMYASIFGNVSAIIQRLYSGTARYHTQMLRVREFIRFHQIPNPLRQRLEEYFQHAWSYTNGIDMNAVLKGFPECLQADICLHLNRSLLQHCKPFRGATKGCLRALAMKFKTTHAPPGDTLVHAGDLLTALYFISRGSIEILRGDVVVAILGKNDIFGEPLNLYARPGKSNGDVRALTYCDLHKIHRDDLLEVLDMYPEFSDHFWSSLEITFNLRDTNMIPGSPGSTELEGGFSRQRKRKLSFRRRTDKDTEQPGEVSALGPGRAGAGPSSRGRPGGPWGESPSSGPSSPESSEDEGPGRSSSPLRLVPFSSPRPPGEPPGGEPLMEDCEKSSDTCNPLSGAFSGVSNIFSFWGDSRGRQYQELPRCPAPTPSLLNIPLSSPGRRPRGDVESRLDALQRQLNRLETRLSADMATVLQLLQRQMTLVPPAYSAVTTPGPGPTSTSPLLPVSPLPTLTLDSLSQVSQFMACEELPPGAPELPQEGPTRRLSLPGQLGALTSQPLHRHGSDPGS
Mitogen-activated protein kinase 14 (Homo sapiens), sequence (Q16539 whole entry): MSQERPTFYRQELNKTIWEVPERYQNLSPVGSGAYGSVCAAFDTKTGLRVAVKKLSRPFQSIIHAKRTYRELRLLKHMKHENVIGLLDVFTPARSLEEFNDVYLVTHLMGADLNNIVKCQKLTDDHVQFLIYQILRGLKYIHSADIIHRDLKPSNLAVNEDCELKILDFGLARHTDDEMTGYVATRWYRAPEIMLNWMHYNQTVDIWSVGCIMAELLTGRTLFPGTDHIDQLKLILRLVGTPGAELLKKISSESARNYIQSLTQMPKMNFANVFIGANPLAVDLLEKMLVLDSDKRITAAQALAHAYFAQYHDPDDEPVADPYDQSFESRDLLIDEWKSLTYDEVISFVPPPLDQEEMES

As for `CC1=C(C#N)C(c2ccc3[nH]nc(C)c3c2)C(C#N)=C(C)N1` [BAY-474], the inhibition in [1] was -8%; in data set [2] it was -1%; in data set [3] it was 46%; in data set [4] it was -1%; in data set [5], 2%; in data set [6] it was 21%. In addition, the inhibition is 4% in data set [7]; 2% in data set [8]; 3% in [9]; -2% in data set [10]; 1% in [11]; -1% in data set [12]. The inhibition in data set [13] was 25%. The inhibition at 60 min, 10 µM on hERG (KCNH2) was 7% (not active).

Regarding `CC1=C(C#N)[C@@H](c2ccc3[nH]nc(C)c3c2)C(C#N)=C(c2ccc(Cl)cc2)N1` [BAY-827], the residual activity is 85.1% in data set [14]; 100% in data set [15]; 100% in data set [16]; 100% in data set [17]; 100% in data set [18]; 100% in [19]. Also, the residual activity in [20], in [21], in data set [22], in [23], in data set [24] and in [25] was 100% in each case. Besides, the residual activity in [26] is 100%; in data set [27] it was 100%; in [28] it was 100%; in [29], 100%; in data set [30], 90%; in [31], 100%. The residual activity is 74.5% in [32]; 100% in data set [33]; 91.2% in data set [34]; 91.1% in [35]; 100% in data set [36]; 98.5% in [37]. Moreover, the residual activity was 100% in [38]; 83.5% in data set [39]; 100% in data set [40]; 74.4% in [41]; 100% in data set [42]; 100% in data set [43].

The record behind these values is ChEMBL document CHEMBL4507263, “Data for DCP probe BAY-474” (2021).
